Literature values as cited in US20200113803A1, “ANHYDROUS COMPOSITION OF SMALL-MOLECULE POLYSACCHARIDES AND APPLICATION THEREOF” (SAGE PHARMACEUTICALS, INC., priority 2016, published 2020).

Conditions: background statement

ability of HA to hold water: up to 1000 ml water for 1 g of HA
Substance: Hyaluronic acid [HA]
